Experimental findings from patent US12187723B2 (BRISTOL-MYERS SQUIBB COMPANY, priority 2019, dated 2025) are described below.

The experiment has as its target T1, human TLR9 (Homo sapiens, UniProt Q9NR96).
T1 construct: host or cells: HEK-Blue cells
T1 sequence (Q9NR96 26-1032): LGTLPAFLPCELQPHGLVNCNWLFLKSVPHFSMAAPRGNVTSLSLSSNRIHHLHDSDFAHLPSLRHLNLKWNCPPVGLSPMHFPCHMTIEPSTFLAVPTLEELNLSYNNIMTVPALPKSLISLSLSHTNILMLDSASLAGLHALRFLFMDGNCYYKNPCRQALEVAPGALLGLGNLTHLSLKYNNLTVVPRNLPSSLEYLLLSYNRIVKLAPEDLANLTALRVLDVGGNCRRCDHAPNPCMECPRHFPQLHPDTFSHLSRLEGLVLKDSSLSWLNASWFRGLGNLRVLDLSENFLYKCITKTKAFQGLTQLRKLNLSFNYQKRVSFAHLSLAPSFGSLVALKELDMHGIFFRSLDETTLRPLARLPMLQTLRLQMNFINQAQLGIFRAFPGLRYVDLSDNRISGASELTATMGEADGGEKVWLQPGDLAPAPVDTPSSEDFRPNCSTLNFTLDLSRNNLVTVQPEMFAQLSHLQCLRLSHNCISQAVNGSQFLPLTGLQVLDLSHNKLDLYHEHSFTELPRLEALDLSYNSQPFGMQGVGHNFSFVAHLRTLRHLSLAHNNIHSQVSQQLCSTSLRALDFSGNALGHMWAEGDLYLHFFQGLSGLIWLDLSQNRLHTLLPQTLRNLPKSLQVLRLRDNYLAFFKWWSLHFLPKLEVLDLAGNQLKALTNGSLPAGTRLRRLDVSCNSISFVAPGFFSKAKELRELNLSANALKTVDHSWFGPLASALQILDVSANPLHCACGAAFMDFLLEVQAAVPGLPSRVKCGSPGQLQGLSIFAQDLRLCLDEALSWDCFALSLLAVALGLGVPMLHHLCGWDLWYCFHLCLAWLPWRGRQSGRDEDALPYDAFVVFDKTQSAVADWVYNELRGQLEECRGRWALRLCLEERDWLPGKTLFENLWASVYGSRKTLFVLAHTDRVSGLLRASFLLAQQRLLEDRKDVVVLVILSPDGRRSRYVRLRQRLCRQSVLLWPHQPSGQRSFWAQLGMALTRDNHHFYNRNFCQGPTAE
The experiment in a line: TLR9 inhibition reporter assay (HEK-Blue SEAP). Format: cell-based. The conditions noted are these: HEK-Blue cells overexpressing human TLR9, ODN2006 5 nM, 22 hour incubation. In a few lines:
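Dose–response from 0.05 nM to 50 μM was run in HEK-Blue human TLR7, TLR8 and TLR9 reporter cells. After 30 min at room temperature with compound, ligand was added (TLR7 gardiquimod 7.5 μM; TLR8 R848 15.9 μM; TLR9 ODN2006 5 nM) and SEAP measured next day, at 22 h.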
For orientation: Reporter assays use an easily measured gene product as a stand-in for the process of interest.
`CCc1cc2c(cc1-c1cc(OC)c3ncnn3c1)[nH]c(=O)n2[C@@H]1CCCN(CC2CCCC2)C1` [Example 209, (R)-1-(1-(cyclopentylmethyl)piperidin-3-yl)-6-ethyl-5-(8-methoxy-[1,2,4]triazolo[1,5-a]pyridin-6-yl)-1,3-dihydro-2H-benzo[d]imidazol-2-one] gave an IC50 of 12.7 µM. In turn, `COc1cc(-c2cc3[nH]c(=O)n([C@H]4CC[C@@H](NC(C)C)CC4)c3cc2C(C)C)cn2ncnc12` [Example 192, 6-isopropyl-1-((1s,4s)-4-(isopropylamino)cyclohexyl)-5-(8-methoxy-[1,2,4]triazolo[1,5-a]pyridin-6-yl)-1,3-dihydro-2H-benzo[d]imidazol-2-one] had an IC50 of 16.6 µM.

With `CCc1cc2c(cc1-c1cc(OC)c3ncnn3c1)[nH]c(=O)n2[C@@H]1CCCN(C2COC2)C1` [Example 173, (R)-6-ethyl-5-(8-methoxy-[1,2,4]triazolo[1,5-a]pyridin-6-yl)-1-(1-(oxetan-3-yl)piperidin-3-yl)-1,3-dihydro-2H-benzo[d]imidazol-2-one], the IC50 was above 50 µM.

`CCc1cc2c(cc1-c1cc(OC)c3ncnn3c1)[nH]c(=O)n2[C@@H]1CCCN(C2CCOCC2)C1` [Example 184, (R)-6-ethyl-5-(8-methoxy-[1,2,4]triazolo[1,5-a]pyridin-6-yl)-1-(1-(tetrahydro-2H-pyran-4-yl)piperidin-3-yl)-1,3-dihydro-2H-benzo[d]imidazol-2-one]: the concentration for half-maximal inhibition (IC50) is 26.6 µM.

In turn, `Cc1c(-c2cc3[nH]c(=O)n([C@H]4CC[C@@H](N(C)C)CC4)c3cc2C(C)C)cn2ncnc2c1C` [Example 185, 5-(7,8-dimethyl-[1,2,4]triazolo[1,5-a]pyridin-6-yl)-1-((1s,4s)-4-(dimethylamino)cyclohexyl)-6-isopropyl-1,3-dihydro-2H-benzo[d]imidazol-2-one] showed an IC50 of 7.07 µM. Regarding `Cc1cc2c(cc1-c1cc(C)c3ncnn3c1)[nH]c(=O)n2[C@@H]1CCCN(C)C1` [Example 15, (R)-6-methyl-5-(8-methyl-[1,2,4]triazolo[1,5-a]pyridin-6-yl)-1-(1-methylpiperidin-3-yl)-1,3-dihydro-2H-benzo[d]imidazol-2-one], the IC50 came out at 5.94 µM. The figure for `COc1cc(-c2cc3[nH]c(=O)n(C4CCC(N5CCC6(CC5)COC6)CC4)c3cc2C(C)C)cn2ncnc12` (centres unmarked) [Example 240, 1-(4-(2-oxa-7-azaspiro[3.5]nonan-7-yl)cyclohexyl)-6-isopropyl-5-(8-methoxy-[1,2,4]triazolo[1,5-a]pyridin-6-yl)-1,3-dihydro-2H-benzo[d]imidazol-2-one] is 4.43 µM; for `CCC(CC)CN[C@H]1CC[C@@H](n2c(=O)[nH]c3cc(-c4cc(OC)c5ncnn5c4)c(C(C)C)cc32)CC1` [Example 194] it is 2.08 µM. The figure for `COc1cc(-c2cc3[nH]c(=O)n([C@H]4CC[C@@H](NCC(C)(C)C)CC4)c3cc2C(C)C)cn2ncnc12` [Example 197, 6-isopropyl-5-(8-methoxy-[1,2,4]triazolo[1,5-a]pyridin-6-yl)-1-((1s,4s)-4-(neopentylamino)cyclohexyl)-1,3-dihydro-2H-benzo[d]imidazol-2-one] is 6.26 µM. For `COCCN1CCC(n2c(=O)[nH]c3cc(-c4cc(OC)c5ncnn5c4)c(C(C)C)cc32)CC1` [Example 223, 6-isopropyl-5-(8-methoxy-[1,2,4]triazolo[1,5-a]pyridin-6-yl)-1-(1-(2-methoxyethyl)piperidin-4-yl)-1,3-dihydro-2H-benzo[d]imidazol-2-one] the value was 13.2 µM; for `Cc1cc2c(cc1-c1cc(C)c3ncnn3c1)[nH]c(=O)n2[C@H]1CCCN(C(C)C)C1` [Example 13, (S)-1-(1-isopropylpiperidin-3-yl)-6-methyl-5-(8-methyl-[1,2,4]triazolo[1,5-a]pyridin-6-yl)-1,3-dihydro-2H-benzo[d]imidazol-2-one], 4.42 µM. `CCN1CCC[C@@H](n2c(=O)[nH]c3cc(-c4cc(C)c5ncnn5c4)c(C)cc32)C1` [Example 16, (R)-1-(1-ethylpiperidin-3-yl)-6-methyl-5-(8-methyl-[1,2,4]triazolo[1,5-a]pyridin-6-yl)-1,3-dihydro-2H-benzo[d]imidazol-2-one]: the concentration for half-maximal inhibition (IC50) was 8.95 µM. In turn, `CCc1cc2c(cc1-c1cc(OC)c3ncnn3c1)[nH]c(=O)n2[C@@H]1CCCN(C(C)C)C1` [Example 172, (R)-6-ethyl-1-(1-isopropylpiperidin-3-yl)-5-(8-methoxy-[1,2,4]triazolo[1,5-a]pyridin-6-yl)-1,3-dihydro-2H-benzo[d]imidazol-2-one] returned an IC50 of 6.83 µM. With `COc1c(C)c(-c2cc3[nH]c(=O)n(C4CCC(N5CCC(F)(F)CC5)CC4)c3cc2C(C)C)cn2ncnc12` (single isomer, unassigned) [Example 229, 1-(4-(4,4-difluoropiperidin-1-yl)cyclohexyl)-6-isopropyl-5-(8-methoxy-7-methyl-[1,2,4]triazolo[1,5-a]pyridin-6-yl)-1,3-dihydro-2H-benzo[d]imidazol-2-one], it took 30 µM to reach half-maximal inhibition (IC50). `CCc1cc2c(cc1-c1cc(OC)c3ncnn3c1)[nH]c(=O)n2[C@@H]1CCCN(CC(C)C)C1` [Example 177, (R)-6-ethyl-1-(1-isobutylpiperidin-3-yl)-5-(8-methoxy-[1,2,4]triazolo[1,5-a]pyridin-6-yl)-1,3-dihydro-2H-benzo[d]imidazol-2-one] displayed an IC50 of 10.7 µM. In turn, `CCc1cc2c(cc1-c1cc(OC)c3ncnn3c1)[nH]c(=O)n2[C@@H]1CCCN(C2CCOC2)C1` (stereo partly drawn) [Example 212, 6-ethyl-5-(8-methoxy-[1,2,4]triazolo[1,5-a]pyridin-6-yl)-1-((3R)-1-(tetrahydrofuran-3-yl)piperidin-3-yl)-1,3-dihydro-2H-benzo[d]imidazol-2-one] showed an IC50 above 50 µM.

Consider `Cc1cc2c(cc1-c1cc(C)c3ncnn3c1)[nH]c(=O)n2[C@@H]1CCCN(C(C)C)C1` [Example 17, (R)-1-(1-isopropylpiperidin-3-yl)-6-methyl-5-(8-methyl-[1,2,4]triazolo[1,5-a]pyridin-6-yl)-1,3-dihydro-2H-benzo[d]imidazol-2-one], for which the IC50 is 5.69 µM. The figure for `CCc1cc2c(cc1-c1cc(OC)c3ncnn3c1)[nH]c(=O)n2[C@@H]1CCCN(C2CCOC2)C1` (stereo partly drawn) [Example 213, 6-ethyl-5-(8-methoxy-[1,2,4]triazolo[1,5-a]pyridin-6-yl)-1-((3R)-1-(tetrahydrofuran-3-yl)piperidin-3-yl)-1,3-dihydro-2H-benzo[d]imidazol-2-one] is above 50 µM; for `COc1cc(-c2cc3[nH]c(=O)n([C@H]4CC[C@@H](NCC5CCOCC5)CC4)c3cc2C(C)C)cn2ncnc12` [Example 196, 6-isopropyl-5-(8-methoxy-[1,2,4]triazolo[1,5-a]pyridin-6-yl)-1-((1s,4s)-4-(((tetrahydro-2H-pyran-4-yl)methyl)amino)cyclohexyl)-1,3-dihydro-2H-benzo[d]imidazol-2-one] it is 8.96 µM; for `CCCN(CCC)[C@H]1CC[C@@H](n2c(=O)[nH]c3cc(-c4cn5ncnc5c(C)c4C)c(C(C)C)cc32)CC1` [Example 199, 5-(7,8-dimethyl-[1,2,4]triazolo[1,5-a]pyridin-6-yl)-1-((1s,4s)-4-(dipropylamino)cyclohexyl)-6-isopropyl-1,3-dihydro-2H-benzo[d]imidazol-2-one] it is 3.37 µM. The figure for `Cc1c(-c2cc3[nH]c(=O)n([C@H]4CC[C@@H](NC5CCOCC5)CC4)c3cc2C(C)C)cn2ncnc2c1C` [Example 187, 5-(7,8-dimethyl-[1,2,4]triazolo[1,5-a]pyridin-6-yl)-6-isopropyl-1-((1s,4s)-4-((tetrahydro-2H-pyran-4-yl)amino)cyclohexyl)-1,3-dihydro-2H-benzo[d]imidazol-2-one] is 12.8 µM; for `COc1cc(-c2cc3[nH]c(=O)n([C@@H]4CCCN(C5CCCOC5)C4)c3cc2C(C)C)cn2ncnc12` (single isomer, unassigned) [Example 218] it is 24.2 µM; for `CCCN[C@H]1CC[C@@H](n2c(=O)[nH]c3cc(-c4cc(OC)c5ncnn5c4)c(C(C)C)cc32)CC1` [Example 195, 6-isopropyl-5-(8-methoxy-[1,2,4]triazolo[1,5-a]pyridin-6-yl)-1-((1 s,4s)-4-(propylamino)cyclohexyl)-1,3-dihydro-2H-benzo[d]imidazol-2-one] it is 13.9 µM.

In general, IC50 refers to the midpoint of a concentration-inhibition curve. Read a low IC50 as greater potency in that assay.
